This is an account of results in ChEMBL document CHEMBL1201862, “PubChem BioAssay data set” (2004).

Some test systems named below: TK-10; SK-MEL-5; SW-620; NCI-H226; K562; EKVX; SF-295; SK-OV-3; SNB-78; KM-20L2; NCI-H23; KM12; SNB-19; UO-31; SR; DU-145; NCI/ADR-RES; MDA-MB-435; MDA-MB-231.
Assay in all cases: NCI anticancer screen, dose series, 48 h

SMILES strings stand for the structures.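 Briefly, cells in 96-well plates were exposed to five compound concentrations for 48 h, and endpoints were estimated by linear interpolation. The concentration for 50% growth inhibition is given as GI50.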 The source made the active and inactive calls. Rule as the data show it: active = GI50 up to about 1.1 µM and inactive = higher.

Take `CC1=C(C(=O)Nc2cccc(C(F)(F)F)c2)C(c2ccc(O)cc2)C(C(=O)Nc2cccc(C(F)(F)F)c2)=C(C)N1`: the GI50 in the experiment with TK-10 is 26.1 µM (inactive); in the experiment with SK-MEL-5, 16.9 µM (inactive); with SW-620, 19.4 µM (inactive); in the experiment on NCI-H226, 17.3 µM (inactive); in the experiment on K562, 15 µM (inactive); in the experiment on EKVX, 18.1 µM (inactive). Besides, the GI50 in the experiment on SF-295 was 20.5 µM (inactive); with SK-OV-3 it was 19.1 µM (inactive); in the experiment with SNB-78 it was 23 µM (inactive); in the experiment with KM-20L2, 18.3 µM (inactive); in the experiment with NCI-H23, 16.1 µM (inactive); in the experiment with KM12, 15.8 µM (inactive). The GI50 with SNB-19 was 32.2 µM (inactive); with UO-31, 12.7 µM (inactive).
In the case of `C=CCCC(C)N(C(=O)OC(C)(C)C)S(=O)(=O)c1ccc(C)cc1` (stereo unspecified), the GI50 in the experiment on TK-10, in the experiment with SW-620, in the experiment with NCI-H226, in the experiment on K562, with SR and in the experiment with SF-295 was > 100 µM (inactive) each time. Besides, the GI50 in the experiment with SK-OV-3, in the experiment on SNB-78, with KM-20L2, with NCI-H23, in the experiment on KM12 and in the experiment on SNB-19 was > 100 µM (inactive) throughout. Also, the GI50 with UO-31 was > 100 µM (inactive).
Take `CCN1CCC(O)(/C=C/c2ccccc2)C(C(=O)/C=C/c2ccccc2)C1` (stereo unspecified): the GI50 in the experiment with TK-10 was 2.61 µM (inactive); in the experiment on SK-MEL-5, 3.22 µM (inactive); in the experiment on SW-620, 1.69 µM (inactive); in the experiment with NCI-H226 it was 3.02 µM (inactive); with EKVX, 3.33 µM (inactive); in the experiment on SF-295, 2.96 µM (inactive). Also, the GI50 with SK-OV-3 is 7.85 µM (inactive); with SNB-78, 3.33 µM (inactive); in the experiment with KM-20L2 it was 2.62 µM (inactive); with NCI-H23, 2.93 µM (inactive); in the experiment on KM12, 1.8 µM (inactive); with SNB-19 it was 9.98 µM (inactive). In addition, the GI50 in the experiment with UO-31 is 10.1 µM (inactive).
With `COC(=O)c1ccc2n[se]nc2c1`, the GI50 in the experiment on TK-10 was > 100 µM (inactive); with SK-MEL-5 it was > 100 µM (inactive); in the experiment on SW-620, > 100 µM (inactive); in the experiment on K562, > 100 µM (inactive); with EKVX, 71 µM (inactive); in the experiment on SR, > 100 µM (inactive). The GI50 with SF-295, in the experiment on SK-OV-3, in the experiment with SNB-78, in the experiment with KM-20L2, in the experiment on NCI-H23 and in the experiment on KM12 was > 100 µM (inactive) throughout. The GI50 with SNB-19 and in the experiment on UO-31 was > 100 µM (inactive) throughout.
For `COC(=O)c1ccc(/C=C/S(=O)(=O)c2ccccc2)cc1`, the GI50 in the experiment with TK-10, with SK-MEL-5, in the experiment with SW-620, in the experiment with NCI-H226, in the experiment on K562 and with EKVX was > 100 µM (inactive) in each case. Besides, the GI50 in the experiment with SF-295, in the experiment on SK-OV-3, in the experiment on SNB-78, in the experiment on KM-20L2, in the experiment on NCI-H23 and with KM12 was > 100 µM (inactive) in each case. For the same compound, the GI50 in the experiment on SNB-19 and with UO-31 was > 100 µM (inactive) in each case.
Consider `O=C1NC(=O)C(C(=O)C(=O)Nc2cc(Cl)ccc2Cl)C(=O)N1`, for which the GI50 in the experiment with TK-10, in the experiment on SK-MEL-5, in the experiment with SW-620, with K562, in the experiment on EKVX and in the experiment on SF-295 was > 100 µM (inactive) in each case. Also, the GI50 with SK-OV-3, in the experiment with SNB-78, with KM-20L2, in the experiment on NCI-H23, in the experiment with KM12 and in the experiment with SNB-19 was > 100 µM (inactive) throughout. In the experiment with UO-31, the GI50 is > 100 µM (inactive).
For `O=C(Nc1ccccc1SC(/C=C/NNC1=NN=C(c2ccccc2)C(c2ccccc2)N1)c1ccccc1)c1ccc(Cl)cc1Cl` (stereo unspecified), the GI50 is > 100 µM (inactive) with TK-10; 42.8 µM (inactive) in the experiment with SK-MEL-5; > 100 µM (inactive) with SW-620; 31.4 µM (inactive) in the experiment with NCI-H226; 60.1 µM (inactive) in the experiment with K562; 37.8 µM (inactive) in the experiment on EKVX. For the same compound, the GI50 in the experiment on SF-295 was 25.6 µM (inactive); in the experiment with SK-OV-3 it was 49.3 µM (inactive); in the experiment on SNB-78, 87.5 µM (inactive); with KM-20L2, > 100 µM (inactive); in the experiment with NCI-H23, 22.8 µM (inactive); with KM12, 38.1 µM (inactive). Also, the results for the GI50 in the experiment on SNB-19 and in the experiment with UO-31 were 80 µM (inactive) and 34 µM (inactive), respectively.
`c1cc2c(ncc3cscc32)s1`: the GI50 in the experiment with TK-10 is > 100 µM (inactive); in the experiment on SK-MEL-5 it was > 100 µM (inactive); with SW-620 it was > 100 µM (inactive); in the experiment on NCI-H226, > 61.7 µM (inactive); with K562 it was > 100 µM (inactive); with EKVX it was > 100 µM (inactive). Further, the GI50 in the experiment with SR was > 100 µM (inactive); with SF-295, > 100 µM (inactive); in the experiment on SK-OV-3, > 10 µM (inactive); in the experiment with SNB-78 it was > 100 µM (inactive); in the experiment with DU-145 it was > 100 µM (inactive); in the experiment on NCI-H23, > 68.4 µM (inactive). Also, the GI50 in the experiment with NCI/ADR-RES was > 100 µM (inactive); in the experiment with KM12 it was > 100 µM (inactive); in the experiment with SNB-19, > 100 µM (inactive); in the experiment on MDA-MB-435, > 100 µM (inactive); in the experiment with UO-31, > 70.6 µM (inactive); with MDA-MB-231 it was > 100 µM (inactive).
In the case of `NC(=O)C(=O)N/N=C(\CC1(O)C(=O)Nc2ccccc21)c1ccc2ccccc2c1` (stereo unspecified), the GI50 with TK-10 was 50.2 µM (inactive); with SK-MEL-5, 32.3 µM (inactive); in the experiment with SW-620 it was 33.5 µM (inactive); in the experiment on NCI-H226, 41.4 µM (inactive); in the experiment on K562, 23.1 µM (inactive); in the experiment on EKVX, 33.1 µM (inactive). Also, the GI50 with SR is 18.2 µM (inactive); with SF-295, 37.9 µM (inactive); in the experiment on SK-OV-3, 46.9 µM (inactive); in the experiment on SNB-78, 72.9 µM (inactive); with NCI-H23, 29.6 µM (inactive); in the experiment on KM12, 21.7 µM (inactive). The GI50 is 22.9 µM (inactive) with SNB-19 and 40.1 µM (inactive) in the experiment with UO-31.
In the case of `O=C1c2ccccc2C(=O)N1CCN(CCN1C(=O)c2ccccc2C1=O)Cn1cccn1`, the GI50 was > 100 µM (inactive) in the experiment with TK-10; > 100 µM (inactive) with SK-MEL-5; 41.8 µM (inactive) with SW-620; 33.4 µM (inactive) in the experiment with K562; > 100 µM (inactive) in the experiment on EKVX; > 100 µM (inactive) in the experiment with SF-295. In addition, the GI50 with SK-OV-3, in the experiment with SNB-78, in the experiment with KM-20L2, in the experiment on KM12, with SNB-19 and with UO-31 was > 100 µM (inactive) each time.
With `CCC1(CN(C)C)CC/C(=C\c2ccc3c(c2)OCO3)C1=O` (stereo unspecified), the GI50 in the experiment with TK-10 is > 100 µM (inactive); in the experiment on SK-MEL-5, 62.5 µM (inactive); in the experiment on SW-620, > 100 µM (inactive); in the experiment with NCI-H226, > 100 µM (inactive); in the experiment with K562, 65.9 µM (inactive); with EKVX it was 52.1 µM (inactive). For the same compound, the GI50 in the experiment on SF-295 was > 100 µM (inactive); in the experiment on SNB-78, > 100 µM (inactive); in the experiment with KM-20L2 it was 47.2 µM (inactive); in the experiment with NCI-H23, > 100 µM (inactive); in the experiment with KM12, > 100 µM (inactive); in the experiment on SNB-19, > 100 µM (inactive). Also, in the experiment on UO-31, the GI50 is 91.8 µM (inactive).
For `Cc1cc(NS(=O)(=O)c2ccc(Nc3c4ccccc4nc4c(C(=O)NCCN(C)C)cccc34)cc2)no1`, the GI50 with TK-10 is 35.1 µM (inactive); in the experiment on SK-MEL-5 it was 2.49 µM (inactive); with SW-620, 2.52 µM (inactive); with NCI-H226, 0.524 µM (active); in the experiment with K562 it was 2.69 µM (inactive); in the experiment on EKVX it was 5.09 µM (inactive). In addition, the GI50 is 0.272 µM (active) in the experiment with SR; 8.38 µM (inactive) with SF-295; 12.7 µM (inactive) in the experiment with SNB-78; 26.4 µM (inactive) with KM-20L2; 4.46 µM (inactive) in the experiment on NCI-H23; 9.25 µM (inactive) with KM12. Moreover, in the experiment with SNB-19, the GI50 is 1.72 µM (inactive).
For `COC(=O)C1[C@@H](C(=O)OC)C12C=Cc1ccccc1C=C2` (stereo partly specified), the GI50 in the experiment with TK-10, in the experiment with SK-MEL-5, in the experiment on SW-620, with K562, in the experiment with EKVX and in the experiment on SR was > 100 µM (inactive) each time. The GI50 in the experiment on SF-295, in the experiment on SK-OV-3, with SNB-78, in the experiment on KM-20L2, with NCI-H23 and in the experiment on KM12 was > 100 µM (inactive) throughout. The GI50 in the experiment on SNB-19 and in the experiment with UO-31 was > 100 µM (inactive) throughout.
With `CC1C=C[C@H](Sc2ccccc2)CC[C@@]1(C)O` (stereo partly specified), the GI50 with TK-10 is > 100 µM (inactive); in the experiment with SK-MEL-5, 59.4 µM (inactive); in the experiment on SW-620, > 100 µM (inactive); in the experiment on NCI-H226, > 100 µM (inactive); in the experiment with K562 it was 67.5 µM (inactive); in the experiment with EKVX, > 100 µM (inactive). The GI50 in the experiment with SK-OV-3 was > 100 µM (inactive); in the experiment on SNB-78, > 100 µM (inactive); with KM-20L2 it was > 100 µM (inactive); with NCI-H23, 70.5 µM (inactive); in the experiment with SNB-19, 89.9 µM (inactive); in the experiment on UO-31, 30.1 µM (inactive).
